Numbered stars: 1 amine (or outer) side, 2 acyl side, 3 side chain; on linkers, the order of the positions; unused ones are H or OH. Side chains are listed from the residue outwards. Peptide text beside a SMILES is read from it. * marks the point of attachment. γGlu = O=C(O)[C@H](CCC(=O)[*:2])N[*:1]; Palmitoyl = CCCCCCCCCCCCCCCC(=O)*

Data set [1] in a line: Stability testing of peptides in plasma. The data set is classed as in vitro ADME, mouse. The method, then: The stability in plasma of the peptideS […], […], […] and […] was determined as follows. […] The spiked plasma samples were gently mixed and allowed to equilibrate for about 5 minutes before start of experiment. The plasma samples were incubated for 48 hours in a GalaxyR CO2 incubator at 37° C. […] The samples were stored at -70° C. until analysis. Plasma samples were assayed as follows. […] After mixing and centrifugation, 100 μl the supernatant was transferred to a new plate and 1 μl was injected onto an analytical column. The analysis was performed using a μLC-system ([…]) coupled to a medium high resolution mass spectrometer (Perkin Elmer PenTOF) with positive electrospray ionisation. […] Flow: 0.1 ml/min using a slow reversed phase gradient. […] Cleavage products arise from the action of the protease DPP IV in plasma. Both the degradation of the peptides and formation of peptide products were reported in percentage of the initial peptide concentration. Peaks were integrated and % remaining peptide was calculated: […] Levels of deamidation and DPP IV cleavage were low for […] and […].

The next data set deals with T1, Rat GLP1R (Rattus norvegicus, UniProt P32301).
T1 construct: expressed in transfected cells
T1 sequence (P32301 22-463): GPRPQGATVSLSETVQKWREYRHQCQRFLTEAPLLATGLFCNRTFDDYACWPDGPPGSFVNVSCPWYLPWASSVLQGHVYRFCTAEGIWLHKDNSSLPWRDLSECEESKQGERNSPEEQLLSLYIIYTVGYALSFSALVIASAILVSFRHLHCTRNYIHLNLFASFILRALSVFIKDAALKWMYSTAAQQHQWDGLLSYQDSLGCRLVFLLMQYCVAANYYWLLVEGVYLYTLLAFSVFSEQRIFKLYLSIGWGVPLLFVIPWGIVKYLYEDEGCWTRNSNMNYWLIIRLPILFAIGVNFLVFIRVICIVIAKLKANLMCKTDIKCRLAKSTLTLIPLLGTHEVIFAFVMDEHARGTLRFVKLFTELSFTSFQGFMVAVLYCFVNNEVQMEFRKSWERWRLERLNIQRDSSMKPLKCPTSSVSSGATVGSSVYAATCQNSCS
The data set is described as follows: cAMP assay in 3.2% rat serum albumin (assay 2). The data set is classed as cell-based. How it is done: (§1) Cryopreserved cell stocks were prepared in 1× cell freezing medium-DMSO serum free (Sigma Aldrich) at 2×10^7/vial and stored at −80° C. […] Peptides were serially diluted in DMSO and then diluted 100 fold into DMEM containing serum albumin at stated final concentration. […] Cells were added to the assay plates and incubated for 30 min at room temperature. Following incubation the assay was stopped and cAMP levels measured using the HTRF® dynamic d2 cAMP assay kit available from CisBio Bioassays, as per the manufacture's guidelines. Plates were read on Perkin Elmer ENVISION® fluorescence plate readers. Human and rat serum albumin were purchased from Sigma Aldrich and mouse serum albumin from Equitech Bio Ltd.
(§2) Data was transformed to % Delta F as described in manufacturer's guidelines and analysed by 4-parameter logistic fit to determine EC50 values. […] For instance. […] To compare the balance of activities at the GLP1R and GlucR between different peptides and across different conditions, these can be correlated using the calculation below, where the EC50's are related to those of the natural ligands.
On the technique in general: Changes in cAMP serve as a functional read-out for many G protein-coupled receptors.

In data set [2] the target is T2, Human GLP1R (Homo sapiens, UniProt P43220). The data set is described as follows: cell-based.
For data set [3], the target named is T2, Human GLP1R. The data set can be described thus: cAMP activity assay in assay medium (assay 1). The note with it: assay medium. Set-up: expressed in transfected cells. It counts as cell-based. The text has this: Biological Activity of Peptides in Cell-Based cAMP Activity Assay (Assay 1):
All sample dilutions were made in duplicate.

A further data set concerns the target T3, Mouse GlucR (Mus musculus, UniProt Q61606).
T3 construct: expressed in transfected cells
The data set is described as follows: cAMP assay in 3.2% mouse serum albumin (assay 2). The data set is classed as cell-based. The settings on record: relative potencies vs natural ligands.

In a further data set the target is T4, Rat GlucR (Rattus norvegicus, UniProt P30082).
T4 construct: expressed in transfected cells
The data set can be described thus: cAMP assay in 3.2% rat serum albumin (assay 2). It counts as cell-based. The note with it: for Rat GlucR/GLP1R Ratio: […] rat serum albumin, relative potencies vs natural ligands.

In another data set the target is T5, Mouse GLP1R (Mus musculus, UniProt O35659).
T5 construct: expressed in transfected cells
T5 sequence (O35659 22-463): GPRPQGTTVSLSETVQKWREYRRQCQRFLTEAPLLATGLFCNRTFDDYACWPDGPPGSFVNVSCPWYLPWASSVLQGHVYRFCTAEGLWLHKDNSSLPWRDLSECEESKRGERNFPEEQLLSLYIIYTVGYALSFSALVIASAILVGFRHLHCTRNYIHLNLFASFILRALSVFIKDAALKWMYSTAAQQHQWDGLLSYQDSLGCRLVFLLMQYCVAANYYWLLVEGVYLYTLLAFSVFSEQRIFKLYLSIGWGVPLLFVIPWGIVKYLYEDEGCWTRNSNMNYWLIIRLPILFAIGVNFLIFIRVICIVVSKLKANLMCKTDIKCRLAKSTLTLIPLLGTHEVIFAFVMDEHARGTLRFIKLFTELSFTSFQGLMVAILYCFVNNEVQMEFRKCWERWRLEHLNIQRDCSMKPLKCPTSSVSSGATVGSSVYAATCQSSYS
The data set is described as follows: cAMP assay in 3.2% mouse serum albumin (assay 2). The data set is classed as cell-based. The method, then:
as §1, §2

Data set [4] can be described thus: Peptide solubility in isotonic formulations (A280). It counts as physicochemical. The method, then:
Default Formulation (DF)=0.1 M Tris pH 7.5, 150 mM Mannitol. Final formulation pH=7.2 • 2. Back up formulation t (BF)=0.05M Tris, 50 mM Arginine/Proline. Final formulation pH=9.0 • 3. […] Final formulation pH=7.0

T2 sequence (P43220 24-463): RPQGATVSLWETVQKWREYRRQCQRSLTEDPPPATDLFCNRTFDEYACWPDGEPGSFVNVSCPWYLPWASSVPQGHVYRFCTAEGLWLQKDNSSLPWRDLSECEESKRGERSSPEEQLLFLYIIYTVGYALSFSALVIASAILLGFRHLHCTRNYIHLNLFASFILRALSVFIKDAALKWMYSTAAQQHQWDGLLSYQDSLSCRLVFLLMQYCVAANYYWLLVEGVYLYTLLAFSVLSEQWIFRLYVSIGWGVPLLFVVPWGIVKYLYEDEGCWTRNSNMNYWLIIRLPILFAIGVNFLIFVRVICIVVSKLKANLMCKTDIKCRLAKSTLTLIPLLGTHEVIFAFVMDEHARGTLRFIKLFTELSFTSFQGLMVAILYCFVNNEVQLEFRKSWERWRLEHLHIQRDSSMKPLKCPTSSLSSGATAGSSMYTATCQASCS
T4 sequence (P30082 27-485): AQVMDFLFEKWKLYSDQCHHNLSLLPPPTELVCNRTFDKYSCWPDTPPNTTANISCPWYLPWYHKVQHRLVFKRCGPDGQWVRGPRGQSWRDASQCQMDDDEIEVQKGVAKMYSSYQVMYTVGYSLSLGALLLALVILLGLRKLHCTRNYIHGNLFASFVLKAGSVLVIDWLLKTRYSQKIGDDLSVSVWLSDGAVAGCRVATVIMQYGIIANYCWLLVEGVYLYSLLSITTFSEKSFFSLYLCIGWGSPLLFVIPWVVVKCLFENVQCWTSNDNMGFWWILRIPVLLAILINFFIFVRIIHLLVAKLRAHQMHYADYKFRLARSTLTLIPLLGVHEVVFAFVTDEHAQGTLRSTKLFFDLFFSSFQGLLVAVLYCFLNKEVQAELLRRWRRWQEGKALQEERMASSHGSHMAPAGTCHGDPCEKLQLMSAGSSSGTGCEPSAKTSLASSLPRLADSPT
T3 sequence (Q61606 27-485): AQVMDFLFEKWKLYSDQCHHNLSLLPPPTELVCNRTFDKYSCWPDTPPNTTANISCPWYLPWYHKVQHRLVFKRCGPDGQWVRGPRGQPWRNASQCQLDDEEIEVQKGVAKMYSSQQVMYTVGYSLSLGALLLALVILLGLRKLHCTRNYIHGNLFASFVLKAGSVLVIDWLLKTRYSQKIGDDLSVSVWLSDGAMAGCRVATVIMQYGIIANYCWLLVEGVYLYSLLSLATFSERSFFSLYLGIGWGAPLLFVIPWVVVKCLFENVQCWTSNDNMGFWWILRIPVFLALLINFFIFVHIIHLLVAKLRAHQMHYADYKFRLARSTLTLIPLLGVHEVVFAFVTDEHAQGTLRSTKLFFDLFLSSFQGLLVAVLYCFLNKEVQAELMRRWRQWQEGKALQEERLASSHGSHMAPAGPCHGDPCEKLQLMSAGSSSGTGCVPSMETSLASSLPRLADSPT

In the case of `CCCCCCCCCCCCCCCC(=O)N[C@@H](CCC(=O)NCCCC[C@H](NC(=O)[C@H](CCCCN)NC(=O)[C@H](CO)NC(=O)[C@H](Cc1ccc(O)cc1)NC(=O)[C@H](CC(=O)O)NC(=O)[C@H](CO)NC(=O)[C@@H](NC(=O)[C@H](Cc1ccccc1)NC(=O)[C@@H](NC(=O)CNC(=O)[C@H](CCC(N)=O)NC(=O)[C@H](CO)NC(=O)[C@@H](N)Cc1c[nH]cn1)[C@@H](C)O)[C@@H](C)O)C(=O)N[C@@H](CC(C)C)C(=O)N[C@@H](CC(=O)O)C(=O)N[C@@H](CO)C(=O)N[C@@H](CCC(=O)O)C(=O)N[C@@H](CCCNC(=N)N)C(=O)N[C@@H](C)C(=O)N[C@@H](CCCNC(=N)N)C(=O)N[C@@H](CC(=O)O)C(=O)N[C@@H](Cc1ccccc1)C(=O)N[C@H](C(=O)N[C@@H](C)C(=O)N[C@@H](Cc1c[nH]c2ccccc12)C(=O)N[C@@H](CC(C)C)C(=O)N[C@H](C(=O)N[C@@H](C)C(=O)NCC(=O)NCC(N)=O)C(C)C)C(C)C)C(=O)O` [Peptide G730] (H-HSQGTFTSDYSKK([γGlu-Palmitoyl])LDSERARDFVAWLVAGG-NH2; N-terminus assumed), the “% +1 DPP cleaved product” value in data set [1] was 5%. Besides, in data set [1], the “% +1 prod” value was 15%. In addition, in data set [1], the “% DPP cleaved product” value was determined as 14%. The remaining at 24 h, 2 μmol/L in data set [1] (mouse plasma, 37° C., 24 h, read-out: % stable peptide) was 65%. Besides, the 50% effective concentration (EC50) at Rat GLP1R was 0.081 nM; at Human GLP1R [2] (EC50 at the GLP1R at 0% HSA, calculated from variation in cAMP generation with HSA concentration), 0.007 nM; at Human GLP1R [2] (Human GLP1R EC50, 4.4% human serum albumin), 0.455 nM; at Human GLP1R [3] (Table 2, C-terminal amide peptides, read-out: Human GLP1R EC50), 0.018 nM; at Human GLP1R [3] (Table 4, read-out: hGLP1R EC50), 0.0395 nM; on Rat GlucR (3.2% rat serum albumin) it was 45.1 nM. In addition, at Mouse GLP1R, a half-maximal effect (EC50) was put at 1.1 nM. Also, the “Mouse GlucR/GLP1R Ratio” value at Mouse GlucR amounted to 0.04. Further, at Rat GlucR, the “Rat GlucR/GLP1R Ratio” value was 0.06. The solubility in data set [4] (Default Formulation (DF), isotonic, DF = 0.1 M Tris pH 7.5, 150 mM Mannitol) is ≥ 5000 µg/mL. The “Formulation Concentration” value in data set [4] (Formulation DF, by A280 nm) amounted to 5 mg/mL. The “10 mg/ml solubility (BF2)” value in data set [4] (yes/no) is on record as “no”.

For the compound “L-Histidyl-L-seryl-L-glutaminylglycyl-L-threonyl-L-phenylalanyl-L-threonyl-L-seryl-L-alpha-aspartyl-(N6-[N-(1-oxohexadecyl)-L-gamma-gutamyl])L-lysy-L-sery-L-alpha-glutamyl-L-tyrosyl-L-leucyl-L-alpha-aspartyl-L-seryl-L-alpha-glutamyl-L-arginyl-L-alanyl-L-arginyl-L-alpha-L-aspartyl-L-phenylalanyl-L-valyl-L-alanyl-L-tryptophyl-L-leucyl-L-alpha-glutamyl-L-alanylglycylglycine [Peptide G933]”, the “Rat GlucR/GLP1R Ratio” value on Rat GlucR is reported as 0.27.

The term EC50 denotes the concentration at which the effect is half-maximal. What is called solubility is the dissolved amount per volume that the medium holds.

Source of the values: patent publication US20200354426A1 (MEDIMMUNE LIMITED, priority 2016, published 2020).
